Laboratory results taken from patent publication US10815238B2, “Antimicrobial compounds and methods of making and using the same” (BIOVERSYS AG, priority 2013, dated 2020).

tested on: Eschericia coli (E. coli) strain ATCC25922; assay: Standard microdilution assay, MIC against E. coli ATCC25922; assay type: cell-based; conditions: Escherichia coli; E. coli strain ATCC25922, standard microdilution assay; cutoff 16 micrograms/mL; read-out: MIC E. Coli
Outline: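 MIC determined by broth microdilution following CLSI protocols, with reference strains run in parallel for quality control. Activity scored +/− at a cutoff of 16 micrograms/mL.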

`C[C@H](N)CCCc1cc(Cl)c(F)c(-c2cc3cn(-c4ccc([C@@H](NCCCNC(=N)N)c5ccc(S(C)(=O)=O)cc5)cc4)c(=O)nc3[nH]2)c1` [Compound 39] and `C[C@H](N)CCCc1cc(Cl)c(F)c(-c2cc3cn(-c4ccc([C@@H](NCCCNC(=N)N)c5ccc(O)cc5)cc4)c(=O)nc3[nH]2)c1` [Compound 26] cannot be ordered by MIC: under 16 µg/mL for the first, under 16 µg/mL for the second.

`C[C@H](N)CCCc1cc(Cl)c(F)c(-c2cc3cn(-c4ccc([C@H](CCNc5nccs5)NCCCNC(=N)N)cc4)c(=O)nc3[nH]2)c1` [Compound 85] and `C[C@H](N)CCCc1cc(Cl)c(F)c(-c2cc3cn(-c4ccc([C@H](CCF)NCCCNC(=N)N)cc4)c(=O)nc3[nH]2)c1` [Compound 74] cannot be ordered by MIC: under 16 µg/mL for the first, under 16 µg/mL for the second.

`C[C@H](N)CCCc1cc(Cl)c(F)c(-c2cc3cn(-c4ccc([C@H](C)NCC[C@H](C)NC(=N)N)cc4)c(=O)nc3[nH]2)c1` [Compound 222] and `C[C@H](N)CCCc1cc(Cl)c(F)c(-c2cc3cn(-c4ccc([C@H](C)NCC[C@@H](C)NC(=N)N)cc4)c(=O)nc3[nH]2)c1` [Compound 194] cannot be ordered by MIC: under 16 µg/mL for the first, under 16 µg/mL for the second.

`C[C@H](N)CCCc1cc(Cl)c(F)c(-c2cc3cn(-c4ccc([C@@H](N)C(=O)NCCNC(=N)N)cc4)c(=O)nc3[nH]2)c1` [Compound 256] and `C[C@H](N)CCCc1cc(OC(F)(F)F)c(F)c(-c2cc3cn(-c4ccc([C@@H](N)C(=O)NCCNC(=N)N)cc4)c(=O)nc3[nH]2)c1` [Compound 257] cannot be ordered by MIC: under 16 µg/mL for the first, under 16 µg/mL for the second.

`C=CCNCCCN[C@@H](C)c1ccc(-n2cc3cc(-c4cc(CCC[C@H](C)N)cc(Cl)c4F)[nH]c3nc2=O)cc1` [Compound 213] and `C[C@H](N)CCCc1cc(Cl)c(F)c(-c2cc3cn(-c4ccc([C@H](C)NCCCN)cc4)c(=O)nc3[nH]2)c1` [Compound 107] cannot be ordered by MIC: under 16 µg/mL for the first, under 16 µg/mL for the second.

`C[C@H](NCCCNC(=N)N)c1ccc(-n2cc3cc(-c4cc(CCC[C@@H](N)CO)cc(C(F)(F)F)c4)[nH]c3nc2=O)cc1` [Compound 242] and `C=CC[C@@H](NCCCNC(=N)N)c1ccc(-n2cc3cc(-c4cc(CCC[C@H](C)N)cc(C(F)(F)F)c4)[nH]c3nc2=O)cc1` [Compound 4] cannot be ordered by MIC: under 16 µg/mL for the first, under 16 µg/mL for the second.

`C[C@H](N)CCCc1cc(Cl)c(F)c(C#Cc2cn(-c3ccc([C@H](C)NCCCNC(=N)N)cc3)c(=O)nc2N)c1` [Compound 241] and `C[C@H](N)CCCc1cc(Cl)c(F)c(-c2[nH]c3nc(=O)n(-c4ccc([C@H](C)NCCCNC(=N)N)cc4)cc3c2Cl)c1` [Compound 290] cannot be ordered by MIC: under 16 µg/mL for the first, under 16 µg/mL for the second.

`C[C@H](N)CCCc1cc(Cl)c(F)c(-c2cc3cn(-c4ccc(CNCC[C@@H](N)C5CC5)cc4)c(=O)nc3[nH]2)c1` [Compound 148] and `C=C[C@@H](N)CCNCc1ccc(-n2cc3cc(-c4cc(CCC[C@H](C)N)cc(Cl)c4F)[nH]c3nc2=O)cc1` [Compound 173] cannot be ordered by MIC: under 16 µg/mL for the first, under 16 µg/mL for the second.

`CCOC(=N)CNCc1ccc(-n2cc3cc(-c4cc(CCC[C@H](C)N)cc(Cl)c4F)[nH]c3nc2=O)cc1` [Compound 166] and `C[C@H](N)CCCc1cc(Cl)c(F)c(-c2cc3cn(-c4ccc(CNCC(=N)N)cc4)c(=O)nc3[nH]2)c1` [Compound 169] cannot be ordered by MIC: over 16 µg/mL for the first, over 16 µg/mL for the second.

Going from `CNCCNCc1ccc(-n2cc(-c3cc4cn(-c5ccc(CNCCNC)cc5)c(=O)nc4[nH]3)c(N)nc2=O)cc1` [Compound 125] to `CNCCNCc1ccc(-n2cc3cc(-c4cc(CCC[C@H](C)N)cc(Cl)c4F)[nH]c3nc2=O)cc1` [Compound 123], the MIC falls from over 16 µg/mL to under 16 µg/mL.

`C[C@H](N)CCCc1cc(-c2cc3cn(-c4ccc([C@H](C)NCCCNC(=N)N)cc4)c(=O)nc3[nH]2)cc([S+]([O-])C(F)(F)F)c1` (stereo partly shown) [Compound 164] and `C[C@H](N)CCCc1cc(-c2cc3cn(-c4ccc([C@H](CCN)NCCCNC(=N)N)cc4)c(=O)nc3[nH]2)cc(C(F)(F)F)c1` [Compound 18] cannot be ordered by MIC: under 16 µg/mL for the first, under 16 µg/mL for the second.

`C[C@H](N)CCCc1cc(-c2cc3cn(-c4ccc([C@H](Cc5c[nH]nn5)NCCCNC(=N)N)cc4)c(=O)nc3[nH]2)cc(C(F)(F)F)c1` [Compound 47] and `C=CC[C@H](NCCCNC(=N)N)c1ccc(-n2cc3cc(-c4cc(CCC[C@H](C)N)cc(SC(F)(F)F)c4)[nH]c3nc2=O)cc1` [Compound 11] cannot be ordered by MIC: under 16 µg/mL for the first, under 16 µg/mL for the second.

`C[C@H](N)CCCc1cc(OC(F)(F)F)c(F)c(-c2cc3cn(-c4ccc([C@H](C)NCC[C@H](CCCN)NC(=N)N)cc4)c(=O)nc3[nH]2)c1` [Compound 284] and `C[C@H](N)CCCc1cc(OC(F)(F)F)c(F)c(-c2cc3cn(-c4ccc([C@H](C)NCC[C@H](CN)NC(=N)N)cc4)c(=O)nc3[nH]2)c1` [Compound 305] cannot be ordered by MIC: under 16 µg/mL for the first, under 16 µg/mL for the second.

`C[C@H](N)CCCc1cc(OC(F)(F)F)c(F)c(-c2cc3cn(-c4ccc([C@H](C)N[C@@H](C)CCNC(=N)N)cc4)c(=O)nc3[nH]2)c1` [Compound 232] and `CSC[C@@H](CCN[C@@H](C)c1ccc(-n2cc3cc(-c4cc(CCC[C@H](C)N)cc(OC(F)(F)F)c4F)[nH]c3nc2=O)cc1)NC(=N)N` [Compound 288] cannot be ordered by MIC: under 16 µg/mL for the first, under 16 µg/mL for the second.

`CC(N)CC[C@@H](O)c1cc(-c2cc3cn(-c4ccc([C@H](C)NCCCNC(=N)N)cc4)c(=O)nc3[nH]2)cc(C(F)(F)F)c1` (stereo partly shown) [Compound 22] and `C[C@H](NCCCNC(=N)N)c1ccc(-n2cc3cc(-c4cc([C@H](O)CC[C@@H](C)N)cc(C(F)(F)F)c4)[nH]c3nc2=O)cc1` [Compound 20] cannot be ordered by MIC: under 16 µg/mL for the first, under 16 µg/mL for the second.

`C[C@H](N)CCCc1cc(SC(F)(F)F)cc(-c2cc3cn(-c4ccc(CNCc5nn[nH]n5)cc4)c(=O)nc3[nH]2)c1` [Compound 163] and `COC(=O)CCNCc1ccc(-n2cc3cc(-c4cc(CCC[C@H](C)N)cc(SC(F)(F)F)c4)[nH]c3nc2=O)cc1` [Compound 141] cannot be ordered by MIC: over 16 µg/mL for the first, over 16 µg/mL for the second.

`N=C(N)NCCCNCc1ccc(-n2cc3cc(-c4ccc(/C=C/C5CN(C(=N)N)C5)cc4)[nH]c3nc2=O)cc1` [Compound 50] and `N=C(N)NCCCNCc1cccc(-n2cc3cc(-c4ccc(C(NC5CN(C(=N)N)C5)C(F)(F)F)cc4)[nH]c3nc2=O)c1` (stereo not shown) [Compound 89] cannot be ordered by MIC: under 16 µg/mL for the first, under 16 µg/mL for the second.

`C[C@H](N)CCCc1cc(Cl)c(F)c(-c2cc3cn(-c4ccc(CNCc5ccncc5)cc4)c(=O)nc3[nH]2)c1` [Compound 127] and `C[C@H](N)CCCc1cc(Cl)c(F)c(-c2cc3cn(-c4ccc(CNCc5c[nH]nn5)cc4)c(=O)nc3[nH]2)c1` [Compound 119] cannot be ordered by MIC: over 16 µg/mL for the first, over 16 µg/mL for the second.

`C[C@H](N)CCCc1cc(Cl)c(F)c(-c2cc3cn(-c4ccc(CNCCC(C)(C)N)cc4)c(=O)nc3[nH]2)c1` [Compound 175] and `CC[C@H](CCNCc1ccc(-n2cc3cc(-c4cc(CCC[C@H](C)N)cc(Cl)c4F)[nH]c3nc2=O)cc1)NC(=N)N` [Compound 198] cannot be ordered by MIC: under 16 µg/mL for the first, under 16 µg/mL for the second.

`C[C@H](NCCCNC(=N)N)c1ccc(-n2cc3cc(-c4cc(CCC[C@@H](N)COC(=O)CCC(=O)O)cc(Cl)c4F)[nH]c3nc2=O)cc1` [Compound 308] and `C[C@H](N)CCCc1cc(Cl)c(F)c(-c2cc3cn(-c4ccc([C@@H](CCN)NCCCNC(=N)N)cc4)c(=O)nc3[nH]2)c1` [Compound 2] cannot be ordered by MIC: under 16 µg/mL for the first, under 16 µg/mL for the second.

`COC(=O)C[C@H](CCN[C@@H](C)c1ccc(-n2cc3cc(-c4cc(CCC[C@H](C)N)cc(Cl)c4F)[nH]c3nc2=O)cc1)NC(=N)N` [Compound 280] and `C[C@H](N)CCCc1cc(Cl)c(F)c(-c2cc3cn(-c4ccc([C@H](C)NCC[C@H](CO)NC(=N)N)cc4)c(=O)nc3[nH]2)c1` [Compound 262] cannot be ordered by MIC: under 16 µg/mL for the first, under 16 µg/mL for the second.

`C[C@H](N)CCCc1cc(SC(F)(F)F)cc(-c2cc3cn(-c4ccc([C@H](N)CCCCNC(=N)N)cc4)c(=O)nc3[nH]2)c1` [Compound 93] and `C[C@H](N)CCCc1cc(SC(F)(F)F)cc(-c2cc3cn(-c4ccc([C@@H](CCN)NCCCNC(=N)N)cc4)c(=O)nc3[nH]2)c1` [Compound 7] cannot be ordered by MIC: under 16 µg/mL for the first, under 16 µg/mL for the second.

`O=c1nc2[nH]ccc2cn1-c1ccc(CNCc2c[nH]nn2)cc1` [Compound 129] and `CNCCNCc1ccc(-n2cc3cc[nH]c3nc2=O)cc1` [Compound 142] cannot be ordered by MIC: over 16 µg/mL for the first, over 16 µg/mL for the second.

`C[C@H](N)CCCc1cc(Cl)c(F)c(-c2cc3cn(-c4ccc([C@H](N)CCCCNC(=N)N)cc4)c(=O)nc3[nH]2)c1` [Compound 92] and `C[C@H](N)CCCc1cc(OC(F)(F)F)c(F)c(-c2cc3cn(-c4ccc([C@H](N)CCCCNC(=N)N)cc4)c(=O)nc3[nH]2)c1` [Compound 234] cannot be ordered by MIC: under 16 µg/mL for the first, under 16 µg/mL for the second.

`C[C@H](N)CCCc1cc(Cl)c(F)c(-c2cc3cn(-c4ccc([C@H](C)NCC[C@@H](C)N)cc4)c(=O)nc3[nH]2)c1` [Compound 193] and `C[C@H](N)CCCc1cc(Cl)c(F)c(-c2cc3cn(-c4ccc([C@H](C)NCC[C@H](C)N)cc4)c(=O)nc3[nH]2)c1` [Compound 221] cannot be ordered by MIC: under 16 µg/mL for the first, under 16 µg/mL for the second.

`CC[C@@H](N)COCc1cc(SC(F)(F)F)cc(-c2cc3cn(-c4ccc([C@H](C)NCCCNC(=N)N)cc4)c(=O)nc3[nH]2)c1` [Compound 77] and `C[C@H](N)CCCc1cc(SC(F)(F)F)cc(-c2cc3cn(-c4ccc([C@@H](NCCCNC(=N)N)C(N)=O)cc4)c(=O)nc3[nH]2)c1` [Compound 58] cannot be ordered by MIC: under 16 µg/mL for the first, under 16 µg/mL for the second.

`C[C@H](N)CCCc1cc(Cl)c(F)c(-c2cc3cn(-c4ccc([C@H](C)N[C@H](CCO)CCNC(=N)N)cc4)c(=O)nc3[nH]2)c1` [Compound 291] and `C[C@H](N)CCCc1cc(Cl)c(F)c(-c2cc3cn(-c4ccc([C@H](C)NCC[C@@H](CO)NC(=N)N)cc4)c(=O)nc3[nH]2)c1` [Compound 264] cannot be ordered by MIC: under 16 µg/mL for the first, under 16 µg/mL for the second.

`C[C@H](N)CCCc1cc(Cl)c(F)c(-c2cc3cn(-c4ccc([C@H](C)NCC[C@H](CS(C)(=O)=O)NC(=N)N)cc4)c(=O)nc3[nH]2)c1` [Compound 289] and `C=CCN(CCCN[C@@H](C)c1ccc(-n2cc3cc(-c4cc(CCC[C@H](C)N)cc(Cl)c4F)[nH]c3nc2=O)cc1)C(=N)N` [Compound 212] cannot be ordered by MIC: under 16 µg/mL for the first, under 16 µg/mL for the second.

Going from `COc1ccc(Cn2cc(CNCc3ccc(-n4cc5cc(-c6cc(CCC[C@H](C)N)cc(SC(F)(F)F)c6)[nH]c5nc4=O)cc3)nn2)cc1` [Compound 122] to `C=C[C@H](CCNCc1ccc(-n2cc3cc(-c4cc(CCC[C@H](C)N)cc(OC(F)(F)F)c4F)[nH]c3nc2=O)cc1)NC(=N)N` [Compound 238], the MIC falls from over 16 µg/mL to under 16 µg/mL.
